Marks after values point to notes of the source that are not given here.
What was measured:
[1] = target: T1, Human RORγ Ligand Binding Domain (RORγ-LBD) (Homo sapiens, UniProt P51449); experiment: Dual Fluorescence Energy Transfer (FRET) assay: co-activator SRC1(2) peptide interaction with RORγ-LBD; type: biochemical; conditions: RORγ-LBD / SRC1(2) peptide, read-out: mean pIC50 (converted)
T1 construct: His6 with thrombin site) (N); made in house; host or cells: E. coli BL21(DE3), modified pET21a vector
T1 sequence (P51449 263-518): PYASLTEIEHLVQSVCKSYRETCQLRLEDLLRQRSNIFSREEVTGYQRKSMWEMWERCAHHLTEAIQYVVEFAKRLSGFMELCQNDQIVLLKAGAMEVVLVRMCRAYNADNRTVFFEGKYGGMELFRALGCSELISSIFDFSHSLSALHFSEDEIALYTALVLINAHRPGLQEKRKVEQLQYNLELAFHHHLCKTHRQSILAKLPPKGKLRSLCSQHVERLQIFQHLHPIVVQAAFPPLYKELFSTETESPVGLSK
From the text: Dual Fluorescence Energy Transfer (FRET) Assay
This assay is based on the knowledge that nuclear receptors interact with cofactors (transcription factors) in a ligand dependent manner. RORγ is a typical nuclear receptor in that it has an AF2 domain in the ligand binding domain (LBD) which interacts with co-activators.
This assay measures ligand-mediated interaction of the co-activator peptide with the purified bacterial-expressed RORγ ligand binding domain (RORγ-LBD) to indirectly assess ligand binding. RORγ has a basal level of interaction with the co-activator SRC1(2) in the absence of ligand, thus, it is possible to find ligands that inhibit or enhance the RORγ/SRC1(2) interaction.
Human RORγ Ligand Binding Domain (RORγ-LBD) was expressed in E. coli strain BL21(DE3) as an amino-terminal polyhistidine tagged fusion protein. DNA encoding this recombinant protein was sub-cloned into a modified pET21a expression vector (Novagen).
Approximately 50 g E. coli cell pellet was resuspended in 300 mL of lysis buffer (30 mM imidazole pH 7.0 and 150 mM NaCl). Cells were lysed by sonication and cell debris was removed by centrifugation for 30 minutes at 20,000 g at 4° C. […] The clarified lysate was loaded onto a column (XK-26) packed with ProBond Nickel Chelating resin (InVitrogen), pre-equilibrated with 30 mM imidazole pH 7.0 and 150 mM NaCl. After washing to baseline absorbance with the equilibration buffer, the column was developed with a gradient from 30 to 500 mM imidazole pH 7.0. Column fractions containing the RORγ-LBD protein were pooled and concentrated to a volume of 5 mLs. The concentrated protein was loaded onto a Superdex 200 column pre-equilibrated with 20 mM Tris-Cl pH 7.2 and 200 mM NaCl. The fractions containing the desired RORγ-LBD protein were pooled together.
Purified RORγ-LBD was buffer exchanged by exhaustive dialysis [3 changes of at least 20 volumes (>8000×)] against PBS [100 mM NaPhosphate, pH 8 and 150 mM NaCl]. […] The modified RORγ-LBD was dialyzed against 2 buffer changes—TBS pH 8.0 containing 5 mM DTT, 2 mM EDTA and 2% sucrose—each at least 20 times of the volume. The modified protein was distributed into aliquots, frozen on dry ice and stored at −80° C. The biotinylated RORγ-LBD was subjected to mass spectrometric analysis to reveal the extent of modification by the biotinylation reagent.
Biotinylated SRC1(2) solution was prepared by adding an appropriate amount of biotinylated SRC1(2) from the 100 uM stock solution to a buffer containing 10 mM of freshly added DTT from solid to give a final concentration of 40 nM. An appropriate amount of Europium labeled Streptavidin was then added to the biotinylated SRC1(2) solution in a tube to give a final concentration of 10 nM. The tube was inverted gently and incubated for 15 minutes at room temperature. Twenty-fold excess biotin from the 10 mM stock solution was added and the tube was inverted gently and incubated for 10 minutes at room temperature.
Biotinylated RORγ-LBD solution was prepared by adding an appropriate amount of biotinylated RORγ-LBD from the stock solution to a buffer containing 10 mM of freshly added DTT from solid to give a final concentration of 40 nM. An appropriate amount of APC labeled Streptavidin was then added to the biotinylated RORγ-LBD solution in a tube to give a final concentration of 20 nM. The tube was inverted gently and incubated for 15 minutes at room temperature. Twenty-fold excess biotin from the 10 mM stock solution was then added and the tube was inverted gently and incubated for 10 minutes at room temperature.
The reaction mixtures were incubated for 5 minutes. […] The plates were incubated for 1 hour and then read on ViewLux in Lance mode for EU/APC.

[2] = system: IL-17A secreted from antiCD3/CD28 stimulated Peripheral Blood Mononuclear cells (PBMC); experiment: Peripheral Blood Mononucleocyte Cell Assay (PBMC Assay - IL-17); type: cell-based; conditions: Homo sapiens, 48 h, IL-17A release, read-out: mean pIC50 (converted)
Protocol: Peripheral Blood Mononucleocvte Cell Assay (PBMC Assay—IL-17) […]
This assay is designed to measure levels of IL-17A secreted from antiCD3/CD28 stimulated frozen Peripheral Blood Mononuclear cells (PBMC) isolated from human blood with the aim of identifying inhibitors of IL-17A release.
2. The compounds for screening are dispensed into a master plate at 10 mM top concentration which are serially diluted 1:3 across 11 points in DMSO, then 500 nL is transferred into a 384-well flat-bottomed Greiner plate to which 50 uL of cell suspension is added: for the single shot screening the highest concentration of compound is 10^−5M; for 11 point full curve dose response studies the highest concentration is 10^−4 M.
As a low control, DMSO (as supplied, for example, by VWR) (final concentration 1%) in column 6 (16 points).
As a high control, 5-(4-fluorophenyl)-2-ureidothiophene-3-carboxamide (obtainable from, for example, Sigma) at a final concentration of 10^−4 M in DMSO should be used in column 18 (16 points).
9. Make the cell suspension at the concentration 8×10^5 cells/mL to give a final number of 40,000 cells/well.
1. Add well mixed CD3/CD28 Dynabeads (as supplied, for example, by Dynal) to achieve ratio bead:cell=2:1 (ie. a dilution of 1 in 20). Mix thoroughly.
2. Dispense the suspension into the 384 Assay Plates using Multidrop (50 uL per well). If the volume of cell suspension is large, mix the suspension after dispensing into every other plate.
3. Cover the plates with the lids and place them to the humidified incubator (37° C., 5% CO2) for 48 hours.
1. Transfer 10 uL of supernatants from assay plates to the MSD plates using Cybiwell. Ensure that all wells are covered with the solution. Tap the plate gently, if some of the wells are not covered with the supernatant.
3. Add 10 uL of MSD IL-17 detecting antibody using multidrop (1 ug/mL in D-PBS without Ca^2+ and Mg^2+ (supplied, for example, by Gibco)).
4. Cover the plates with adhesive foil and incubated with shaking for 3 hours at room temperature
7. Add 35 uL of MSD Read Buffer T×2 using multidrop.
8. Read plates on MSD MA6000 reader using the 384 well plate protocol as per manufacturer's instructions.

IL-17A mRNA expression = experiment: Ex-vivo human skin model, IL-17A mRNA expression; type: cell-based; conditions: for Percentage of inhibition of IL-17A mRNA expression: Th17 cytokine cocktail 24 h, RT-PCR
Protocol: (§1) Fresh ex vivo human skin from healthy bariatric patients, that underwent abdominoplasty skin removal, was de-fatted and dermatomed at 750 μm. Dermatomed skin was incubated twice for 5-10 minutes at room temperature in PBS containing a antibiotic/antimycotic solution: Fungizone (Invitrogen #15290018), PSG (Fisher #BW17718R) and Gentamicin (Invitrogen #15750060). Skin was treated aseptically from this point on. Individual skin samples were obtained by 10 mm punch biopsy and placed in a 0.4 μm PCF membrane transwell (Millicell #PIHP01250) containing 30 μl of a 64% bovine collagen solution. After a 30 minute incubation at 37° C., which allows the collagen solution time to set, skin samples on transwells were transferred to 6-well plates (1 sample per well) and the lower chamber filled with 1 ml complete media (Cornification Media)+hydrocortisone (final concentration of 0.4 μg/ml) with or without test compounds at 10 μM (day −3) and allowed to rest overnight (16-18 h) at 37° C. Next, media was aspirated from the lower chamber, replaced with 1 ml complete media without hydrocortisone and incubated at 37° C. for 1 h. This constituted a ‘wash’ step. Following the hydrocortisone washout, media was again aspirated from the lower chamber and replaced with 1.0 ml complete media without hydrocortisone with or without GSK compounds at 10 μM (day −2). Cultures were incubated at 37° C. in a humidified chamber and media was refreshed one more day (day-1). The following day (day-0), cultures were stimulated for 24 h with a freshly made Th17 cytokine cocktail (CD3, 1 μg/ml, CD28, 2 μg/ml, IL-1b, 10 ng/ml, IL-6, 5 ng/ml, TGFb, 1 ng/ml, IL-21, 10 ng/ml, anti-IL-4, 1 μg/ml and anti-INFg, 1 μg/ml) with or without test compounds at 10 μM. Upon harvest (day +1), skin samples were minced with a razor blade and transferred to 1.5 ml RNAse-free tubes with 1 ml RNAlater solution until later analysis by RT-PCR (stored at −80 C).
(§2) Total RNA was isolated from about 30-40 mg of tissue using Qiagen's (Cat #74106) Mini RNA Isolation kit. Briefly, tissue was homogenized in the Precellys-24 machine using 300 μL of RLT buffer supplemented with 1% 2-Beta-Mercapto-Ethanol at 6300 rpm for 30 seconds for 6 cycles with a 2-minute ice break. 600 μL of water containing Proteinase K was added to the homogenate and digested at 55 C for 15 minutes. Digested tissue was spun down for 3 minutes at 10,000×g and the supernantant was used for RNA isolation using Qiagen's RNeasy mini columns according to manufacturer's protocol. 100 ng of RNA was used as template in a 20 μL PCR volume using Applied Biosciences RNA-to-CT 1 Step kit (AB Catalog #4392938) as well as the specific TaqMan probe for each gene to be quantified. Life Technologies FAM labeled Probes Catalog Numbers are as follows: ACTb=Hs01060665_g1, IL-17A=Hs00174383_m1, IL-17F=Hs00369400_m1, IL-22=Hs01574154_m1. All probes used (except for ACTb) expand an Exon. Applied Biosciences' Master Mix has a ROX dye internal control. OneStepPlus PCR machine was used for both the RT step and the 40 amplification cycles. RNA levels of gene of interest's relative expression were calculated using the Delta Delta CT formula.
(§3) First delta: Normalized to ACTb gene expression
(§4) Second delta: Normalized to sample 13 (Day 0+DMSO) for the gene of interest.

IL-17F mRNA expression = experiment: Ex-vivo human skin model, IL-17F mRNA expression; type: cell-based; conditions: for Percentage of inhibition of IL-17F mRNA expression: Th17 cytokine cocktail 24 h, RT-PCR
Protocol: as §1, §2, §3, §4

IL-22 mRNA expression = experiment: Ex-vivo human skin model, IL-22 mRNA expression; type: cell-based; conditions: for Percentage of inhibition of IL-22 mRNA expression: Th17 cytokine cocktail 24 h, RT-PCR
Protocol: as §1, §2, §3, §4

[3] = four different donors, compound 10 μM

Cc1ccc(N(CC(C)C)S(=O)(=O)c2ccc(OCC3CCOCC3)c(Cl)c2)c(C)c1 [Example E20]
IC50 [1]: ≤ 15.8 nM

Cc1ccc(N(CC(C)C)S(=O)(=O)c2ccc(OCC3CCOCC3)c(C3CC3)c2)c(C)c1 [Example E21, 3-cyclopropyl-N-(2,4-dimethylphenyl)-N-isobutyl-4-((tetrahydro-2H-pyran-4-yl)methoxy)benzenesulfonamide]
IC50 [1]: ≤ 15.8 nM | IC50 [2]: < 1000 nM

Cc1ccc(N(CC(C)C)S(=O)(=O)c2ccc(OCC3CCOCC3)cc2)c(C)c1 [Example E12]
IC50 [1]: ≤ 15.8 nM | IC50 [2]: < 1000 nM

CCc1ccc(N(CC(C)C)S(=O)(=O)c2ccc([C@H](O)CN3CCOCC3)c(CO)c2)cc1 [Example E125, N-(4-ethylphenyl)-4-(1-hydroxy-2-morpholinoethyl)-3-(hydroxymethyl)-N-isobutylbenzenesulfonamide]
IC50 [1]: 31.6 nM | Percentage of inhibition of IL-17A mRNA expression (IL-17A mRNA expression; Skin Donor 1, compound 10 μM): 65% * | Percentage of inhibition of IL-17A mRNA expression (IL-17A mRNA expression; Skin Donor 2, compound 10 μM): 92% * | Percentage of inhibition of IL-17A mRNA expression (IL-17A mRNA expression; Skin Donor 3, compound 10 μM): 65% * | Percentage of inhibition of IL-17A mRNA expression (IL-17A mRNA expression; Skin Donor 4, compound 10 μM): 93% * | gene transcription of il17a (result in words) (IL-17A mRNA expression; [3]): inhibited | Percentage of inhibition of IL-17F mRNA expression (IL-17F mRNA expression; Skin Donor 1, compound 10 μM): 39% | Percentage of inhibition of IL-17F mRNA expression (IL-17F mRNA expression; Skin Donor 2, compound 10 μM): 89% * | Percentage of inhibition of IL-17F mRNA expression (IL-17F mRNA expression; Skin Donor 3, compound 10 μM): 45% | Percentage of inhibition of IL-17F mRNA expression (IL-17F mRNA expression; Skin Donor 4, compound 10 μM): 80% * | gene transcription of il17f (result in words) (IL-17F mRNA expression; [3]): inhibited | Percentage of inhibition of IL-22 mRNA expression (IL-22 mRNA expression; Skin Donor 1, compound 10 μM): 52% * | Percentage of inhibition of IL-22 mRNA expression (IL-22 mRNA expression; Skin Donor 2, compound 10 μM): 52% | Percentage of inhibition of IL-22 mRNA expression (IL-22 mRNA expression; Skin Donor 3, compound 10 μM): 20% | Percentage of inhibition of IL-22 mRNA expression (IL-22 mRNA expression; Skin Donor 4, compound 10 μM): 70% * | gene transcription of il22 (result in words) (IL-22 mRNA expression; [3]): inhibited

Cc1ccc(N(CC(C)C)S(=O)(=O)c2ccc(OCC3CCOCC3)cc2C)c(C)c1 [Example E25]
IC50 [1]: ≤ 15.8 nM

Cc1ccc(N(CC(C)C)S(=O)(=O)c2ccc(OCC3CCOCC3)cc2O)c(C)c1 [Example E26, N-(2,4-dimethylphenyl)-2-hydroxy-N-isobutyl-4-((tetrahydro-2H-pyran-4-yl)methoxy)benzenesulfonamide]
IC50 [1]: ≤ 15.8 nM

Cc1ccc(N(CC(C)C)S(=O)(=O)c2cc(F)c(OCC3CCOCC3)c(F)c2)c(C)c1 [Example E23]
IC50 [1]: ≤ 15.8 nM

Cc1ccc(N(CC(C)C)S(=O)(=O)c2ccc(OCC3CCOCC3)c(C)c2)c(C)c1 [Example E24]
IC50 [1]: ≤ 15.8 nM
